According to patent publication US20200323797A1, “Treatment of Obesity-related Conditions” (INSTITUTO DE MEDICINA MOLECULAR, priority 2017, published 2020):
“And” between values parts separate entries of the source, which are not always exact repeats. Identical values can stand only once. Counter-ions that a name gives are not always drawn.

Columns and labels:
[1] = tested on: C57BL/6 mice; test: Faecal output and plasma triglycerides during HFD feeding; assay type: in vivo, mouse
Protocol: (§1) Blood glucose was measured using a glucometer (Accu-Check, Roche). Analysis of Insulin, Triglycerides, Glycerol and FFA levels in plasma as performed using Mouse Ultrasensitive Insulin ELISA (Alpco), Triglyceride Quantification Kit (Abcam), Free Glycerol Reagent (Sigma) and Glycerol Standard Solution (Sigma), and Free Fatty Acid Quantification Kit (MAK044, Sigma), respectively according to manufacturer's instructions.
24 h faecal output was collected and weighed. The faeces were washed with 1×PBS and total triglyceride content was extracted by homogenization and boiling, for 2 cycles of 5 min, in 5% NP-40. Triglyceride content was measured using Triglyceride Quantification Kit (Abcam), according to manufacturer's instructions, and normalized to the weight of total faecal output.

[2] = tested on: C57BL/6 mice; test: Acute behaviour and WAT NE content after single IP injection; assay type: in vivo, mouse
Protocol: NE levels were determined with an NE ELISA kit (Labor Diagnostika Nord GmbH). Tissues were homogenized and sonicated in homogenization buffer (1 N HCl, 1 mM EDTA, 4 mM Sodium metabisulfite), and cellular debris were pelleted by centrifugation at 20,000 g for 10 min at 4° C.). All tissue samples were normalized to total tissue protein concentration.
(§2) After 3 weeks of HFD exposure and treatment, mice were either acclimated to tracking cages for 1 week before starting the 72 h locomotion measurements using the LabMaster tracking system (TSE Systems; Bad Homburg); or filmed for 20-30 min, with a ZEISS optics camera, 1 h post injection inside their normal housing cage, for assessment of total distance traveled. Footage-records were filtered using the video editor Avidemux (Avidemux 2.7.1) and 10 or 15 min distance computations were quantified using the TrackMate tracking plugin from Fiji (Fiji; Wisconsin-Madinson).

[3] = tested on: superior cervical ganglia sympathetic neurons from GCaMP3+ mice; test: Intracellular calcium imaging of ACh-stimulated sympathetic neurons; assay type: cell-based, mouse; conditions: 15 μM drug for 24 h; 10 μM ACh for 40 s
Protocol: For Ca^2+ experiments, sympathetic neurons obtained from GCaMP3^+ mice. […] At 7 DIV, coverslips with sympathetic neurons from GCaMP3^+ mice were mounted on an inverted microscope with epifluorescent optics (Axiovert 135TV, Zeiss) equipped with a xenon lamp (located at a Lambda DG-4 (Sutter Instrument) and band-pass filter of 450-490 nm wavelengths. Ca^2+ measurements were performed at 37° C., as reported in Jacob et al., 2014(33) Throughout the experiments the Ach was applied focally through a drug filled micropipette placed under visual guidance over a single neuronal cell. Drug release was performed by focal pressure (10 psi for 40 s) through a Toohey Spritzer pressure System Ile (Toohey Company). […] Images were obtained every 250 ms by exciting the preparations at 450-490 nm and the emission wavelength was set to 510 nm. Neurons were imaged with a cooled CCD camera (Photometrics CoolSNAP fx), processed and analysed using the software MetaFluor (Universal laging, West Chester, Pa.). Ca^2+ levels were recorded at the cell body of neurons (manually defined over the cell profile) in the field of view and variations were estimated as changes of the fluorescence signal over the baseline (ΔF/F0=[(Fpost−Frest)/Frest]).

[4] = tested on: C57BL/6 mice; test: Thermoregulation studies (thermography, rectal probe) during DIO; assay type: in vivo, mouse; conditions: 2 h post-injection
Protocol: All measurements were done in ad libitum fed mice 2 h post-injections. Rectal temperature was measured with an electronic thermometer (Precision). BAT and Tail thermographic pictures were taken using a Compact-Infrared-Thermal-Imaging-Camera (FLIR; West Mailing) and FLIR-Tools-Software (FLIR; West Mailing) to quantify local temperatures.

[5] = tested on: C57BL/6 mice; test: Diet induced obesity, 10 weeks HFD with chronic treatment; assay type: in vivo, mouse
[6] = tested on: LSL-DTR (Control) and TH-cre; LSL-DTR (Symp) mice; test: High fat diet challenge in Control and sympathectomized (Symp) mice, 6 weeks; assay type: in vivo, mouse; conditions: for BW gain: 6 weeks HFD, 0.12 mol/kg daily IP; for Locomotor activity, total distance traveled: 10-min video-tracking, 1 h post-injection; for Plasma Glycerol levels: 2 h post-injection; for Food intake: HFD
Protocol: For detailed characterization refer to Pereira et al. 2017(52). Briefly, TH-cre; LSL-DTR mice were used for this experiment and LSL-DTR mice were used as controls. PEGylated Diphtheria Toxin (PEGyDT) was administered once a day for 8 consecutive days (25 ng/g of BW, IP injections). All following experiments were performed at least 24 h post the last injection.
as §1
[…]. Tissues were homogenized and sonicated in homogenization buffer (1 N HCl, 1 mM EDTA, 4 mM Sodium metabisulfite), and cellular debris were pelleted by centrifugation at 20,000 g for 10 min at 4° C.). All tissue samples were normalized to total tissue protein concentration.
as §2

[7] = tested on: SCG sympathetic neurons from C57BL/6 mice; test: Whole cell patch-clamp electrophysiology of sympathetic neurons
[8] = molecular target: T1, Slc6a2 (Mus musculus, UniProt O55192); test: NE uptake by SAMs in SCG explant cultures, SLC6A2 blocker; assay type: cell-based; conditions: 100 nM Nisoxetine hydrochloride
T1 construct: CD45.2+F4/80+ cells isolated from the SCG of either B6 or Slc6a2−/− mice; from tissue; sorted CD45+F4/80+ sympathetic neuron-associated macrophages (sympathetic neurons are also present)
T1 sequence (O55192 whole entry): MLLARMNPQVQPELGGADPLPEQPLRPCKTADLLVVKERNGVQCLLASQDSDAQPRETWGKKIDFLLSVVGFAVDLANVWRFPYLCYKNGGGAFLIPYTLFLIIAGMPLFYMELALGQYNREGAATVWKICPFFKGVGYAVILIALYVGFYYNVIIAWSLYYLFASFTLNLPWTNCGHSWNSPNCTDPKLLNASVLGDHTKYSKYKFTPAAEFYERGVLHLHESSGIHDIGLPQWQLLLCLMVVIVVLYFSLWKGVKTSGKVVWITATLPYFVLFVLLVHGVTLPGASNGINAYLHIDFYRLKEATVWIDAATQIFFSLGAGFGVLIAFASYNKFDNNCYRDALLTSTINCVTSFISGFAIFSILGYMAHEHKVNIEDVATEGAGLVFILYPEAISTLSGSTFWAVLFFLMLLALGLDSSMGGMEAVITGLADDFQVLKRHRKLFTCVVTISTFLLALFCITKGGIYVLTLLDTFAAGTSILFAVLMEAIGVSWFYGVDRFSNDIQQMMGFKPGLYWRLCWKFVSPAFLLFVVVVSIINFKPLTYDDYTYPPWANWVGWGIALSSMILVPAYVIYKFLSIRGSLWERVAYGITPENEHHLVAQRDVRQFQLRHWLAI

[9] = molecular target: T2, MAOa (Mus musculus, UniProt Q64133); test: NE content of SAMs and medium in SCG explant cultures, MAOA blocker; assay type: cell-based; conditions: ACh-activated SCG explants; 100 μM Clorgyline, 2 hours
T2 construct: CD45.2+F4/80+ cells isolated from the SCG of either B6 or Slc6a2−/− mice; from tissue; sorted CD45+F4/80+ SAMs (neuronal MAOa may also contribute to NE in the medium)
T2 sequence (Q64133 1-526): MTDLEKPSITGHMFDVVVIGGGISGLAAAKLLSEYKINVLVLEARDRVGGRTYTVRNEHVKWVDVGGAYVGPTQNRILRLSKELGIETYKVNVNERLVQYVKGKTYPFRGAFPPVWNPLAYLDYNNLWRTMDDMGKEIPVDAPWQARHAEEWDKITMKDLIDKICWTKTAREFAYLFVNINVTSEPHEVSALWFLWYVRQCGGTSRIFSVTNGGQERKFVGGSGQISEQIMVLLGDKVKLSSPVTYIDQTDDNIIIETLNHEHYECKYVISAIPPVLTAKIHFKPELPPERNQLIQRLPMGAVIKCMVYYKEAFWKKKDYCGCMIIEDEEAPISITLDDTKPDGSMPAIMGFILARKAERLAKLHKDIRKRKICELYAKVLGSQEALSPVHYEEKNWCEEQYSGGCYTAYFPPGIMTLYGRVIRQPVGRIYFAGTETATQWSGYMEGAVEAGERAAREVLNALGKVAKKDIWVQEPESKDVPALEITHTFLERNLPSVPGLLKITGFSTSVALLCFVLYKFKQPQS
Protocol: SCG were removed from 4-6 weeks old mice under a stereomicroscope and placed in Dulbecco's Modified Eagle's medium (DMEM, Invitrogen, Carlsbad, Calif., U.S.A.). Ganglia were cleaned from the surrounding tissue capsule and transferred into 8-well Tissue Culture Chambers (Sarstedt, Nümbrecht, Germany) that were previously coated with poly-D-lysine (Sigma/Aldrich, Steinheim, Germany) in accordance to the manufacturers instructions. Ganglia were then covered with 5 μl of Matrigel (BD Bioscience, San Jose, Calif., U.S.A.) and incubated for 7 min at 37° C. DMEM without phenol red (Invitrogen) supplemented with 10% fetal bovine serum (Invitrogen), 2 mM L-Glutamine (Biowest, Nuaillé, France) and nerve growth factor (Sigma/Aldrich) were subsequently added. 12 SCG explants cultures were prepared per condition. SCG ganglia were cultured for minimum 24 hours prior to further manipulation. […]
Depolarization of sympathetic neurons in TH-Cre/LSLChR2-YFP explant cultures were performed on a Yokogawa CSUX Spinning Disk confocal using the 488 nm laser line and pointing at the region of interest (ROI) for 200 μs. […] NE in the SCG explant culture medium and sorted CD45, F4/80-double positive cells was determined with NE ELISA kit (Labor Diagnostika Nord GmbH, Nordhorn, Germany, cat # BA E-5200). […]

[10] = fed-state, 2 h post-injection without access to food

CC(N)Cc1ccccc1 (centres unmarked) [AMPH, Amphetamine]
Total 24 h faecal output ([1]; HFD feeding): 0.48 ± 0.03 g | Faecal triglycerides (TGs) levels ([1]; HFD feeding, per mg of faeces): 1.89 ± 0.15 nmol/mg | Plasma TGs levels [1, 10]: 3.48 ± 0.01 µmol/mL | Locomotion, total distance traveled ([2]; 15-min video-tracking, 1 h post-injection): 70.45±7.54 m | NE content in iWAT ([2]; 2 h post-injection): 9.69 ± 1.49 ng/mg | NE content in gWAT ([2]; 2 h post-injection, per total tissue protein): 6.63 ± 0.58 ng/mg | Food intake ([2]; 24 h post-injection, 0.12 mol/kg IP): 2.57 ± 0.15 g | ACh-induced intracellular [Ca2+] increase, ΔF/F0 [3]: 1.71±0.05 | Core body temperature (rectal probe) ([4]; fourth week of HFD): 37.94±0.10 °C | Tail temperature at the tail base (thermography) ([4]; fourth week of HFD): 30.07±0.54 °C | BAT temperature (thermography) ([4]; HFD fed mice, fourth week): 38.25±0.25 °C | Locomotor activity ([5]; (a.u.), fourth week of HFD): 53.72±5.27 counts/day | NE levels in the liver ([5]; HFD fed, per total protein): 1.327 ± 0.262 ng/mg | NE levels in the muscle ([5]; HFD fed, per total protein): 0.493 ± 0.030 ng/mg | iWAT adipocyte size ([5]; after 10 weeks of HFD): 1152.0±58.9 μm^2 | iWAT weight, % of total BW ([5]; after 10 weeks of HFD): 0.92±0.13% | NE content in iWAT ([5]; after 10 weeks of HFD and treatment, per total protein): 1.166 ± 0.263 ng/mg | BW gain ([5]; after 10 weeks of HFD, 0.12 mol/kg daily IP): 20.49±2.10% | Daily food intake ([5]; during HFD and treatment): 2.17 ± 0.09 g/day | Circulating plasma insulin levels [5, 10]: 0.582 ± 0.020 ng/mL | Plasma Free Fatty Acids [5, 10]: 0.766 ± 0.043 µmol/mL | Plasma Glycerol [5, 10]: 11.771 ± 1.249 µmol/mL | TGs content in muscle ([5]; per total protein): 11.54 ± 0.17 µmol/mg | TGs content in the liver ([5]; per total protein): 16.23 ± 1.95 µmol/mg | NE content in inguinal WAT ([6]; Control mice): 2.58±0.28 ng/mg of total tissue protein | BW gain ([6]; Control mice): 12.67±1.79% | Locomotor activity, total distance traveled ([6]; Control mice): 21.88±1.09 m | Plasma Glycerol levels ([6]; Control mice): 89.70 ± 10.20 µg/mL | Food intake ([6]; Control mice): 2.08 ± 0.25 g/day | NE content in inguinal WAT ([6]; Symp mice): 1.51 ± 0.20 ng/mg | BW gain ([6]; Symp mice): 39.19±4.54% | Locomotor activity, total distance traveled ([6]; Symp mice): 24.30±2.88 m | Plasma Glycerol levels ([6]; Symp mice): 59.07 ± 7.83 µg/mL | Food intake ([6]; Symp mice): 2.00 ± 0.12 g/day | Resting membrane potential [7]: −35.70±1.02 mV | Changes in resting membrane potential ([7]; AMPH vs Vehicle, FIGS. 5A, B): no significant changes | Maximum firing frequency ([7]; current-clamp mode): 37.60±1.07 Hz and 41.00±1.43 Hz

CNCCC(Oc1ccccc1OC)c1ccccc1 (centres unmarked) [Nisoxetine, Nisoxetine hydrochloride]
NE accumulation in SAMs ([8]; ACh-activated SCG explants, 2 hours): prevented NE accumulation in SAMs | Uptake of NE by SAMs (NE content in CD45+F4/80+ cells) ([8]; optogenetic stimulation of SCG explants): prevented

C#CCN(C)CCCOc1ccc(Cl)cc1Cl [clorgyline, Clorgyline]
Intracellular NE levels in SAMs [9]: nearly double intracellular NE levels | NE levels in medium [9]: increased NE levels in medium
